“Also recorded” adds a separate entry of the source. Like-named read-outs stand apart in the source and are kept apart here.
How the values were obtained:
[1] = test system: rats following MCAO; test: Brain infarction quantification (Nissl thionin) after MCAO; assay type: in vivo, rat; conditions: s.c. daily for 3 days from 24 h post-MCAO (NAGH 0.86, NAD 2.8, Bromo-DTG 8.2, Chloro-DTG 8.5 mg/kg/day); 30 days post MCAO
Procedure: All animal procedures were performed according to the University of South Florida guidelines for the care and use of animals and protocols were reviewed and approved by the Institutional Animal Care and Use Committee and adhered to the NIH guidelines for the care and use of animals. Adult male Sprague Dawley rats (Harlan) weighing about 250-300 g at the time of surgery were used for the study. All animals were housed two per cage in a temperature controlled room, under a 12 hour light-dark cycle, and given access to water and food ad libitum. Animals were monitored daily for wellness and biweekly for weight loss. For the NAGH studies, a total of 84 animals were randomly assigned to 2 groups: MCAO only (n=42) and rat treated with NAGH (n=42) beginning 24 hour after MCAO.
(§1) MCAO surgeries were performed as described elsewhere (Vendrame M, Cassady C J, Newcomb J, Butler T, Pennypacker K R, Zigova T, et al. Stroke. 2004; 35:2390-2395). Briefly, rats were anesthetized with isoflurane, and the right common carotid and external carotid arteries were exposed using blunt dissection techniques. The vagus nerve was separated from common carotid artery and the external carotid artery was ligated proximally, and transected near the bifurcation. An embolus 40 mm in length (4.0 siliconized monofilament) was inserted into the external carotid artery and fed distally into the origin of the middle cerebral artery (˜25 mm from insertion) through the internal carotid artery. Blood samples were taken and analyzed using an i-STAT handheld analyzer for hemoglobin, hematocrit, ionized calcium, glucose, sodium, potassium, pH, pCO2, HCO3, TCO2, base excess, pO2, and O2. Cerebral blood flow was recorded using a Laser Doppler Monitor (Moor Instruments) to verify occlusion. Afterwards, the embolus was ligated permanently into the vessel and the neck incision was closed. Animals were treated with Ketoprofen IM (10 mg/kg) for three days post-surgery.
(§2) For the NAGH studies, vehicle or NAGH were prepared fresh each day. Daily subcutaneous injections (s.c) were administered beginning about 24 hours after MCAO and continued daily to about 72 hours post-surgery (FIG. 1). Animals received a total of 3 injections. A total of 84 animals were randomly assigned into 2 groups: Rats treated with vehicle (40% DMSO in sterile saline, n=42), or rats treated with 0.86 mg/kg NAGH (n=42).
For the studies with other compounds based on the structure of DTG, twenty-four hours after MCAO, the rats began a sigma agonist treatment regimen. Vehicle or drug was prepared fresh each day. […]
Infarct size was determined by Nissl thionin staining. […]

[2] = test system: permanent middle cerebral artery occlusion (MCAO); conditions: administered beginning 24 hours after permanent MCAO; cited from earlier work
[3] = test system: microglial cells; conditions: 24 hours after in vitro ischemia; cited from earlier work
[4] = test system: microglial cells; test: Inhibition of microglial migration evoked by ATP; assay type: cell-based
Procedure: (§3) FIG. 8 is a series of images confirming NAGH acts as a sigma receptor agonist. A) Concentration-response relationship for NAGH (closed circles) and DTG (open circles) inhibition of microglial migration evoked by 100 μM ATP. […] Points represent mean (±SEM) and for all points, n>9. B) Bar graph of the mean (±SEM) number of microglial cells migrating in response to 100 μM ATP when ATP was added alone (DMEM) or in the presence of 100 μM NAGH. Microglia were further exposed to no σ antagonist (Control), or the σ-1 antagonist, BD-1047 (10 μM, BD-1047), or the σ-2 antagonist, rimcazole (10 μM, Rimcazole). Asterisks denote significant difference between DMEM and NAGH within Control, BD-1047 and Rimcazole groups, respectively. Pound symbols indicate significant difference between Control, BD-1047 and Rimcazole within DMEM and NAGH groups, respectively. P<0.05 and n=24 for all groups.
as §3, with “8A illustrates the concentration-response” for “8 is a series of images confirming NAGH acts as a sigma receptor agonist. A) Concentration-response”, “FIG. 8B depicts a bar” for “B) Bar”

[5] = test system: rats following MCAO; test: Grip strength test after MCAO; assay type: in vivo, rat; conditions: NAD 2.8 mg/kg s.c. x3; 30 days after MCAO; p=0.0007
Procedure: (§4) For NAD testing, a total of 32 animals were randomly assigned into 2 groups: Vehicle (n=16), and rat treated with 2.8 mg/kg NAD (n=16). Vehicle consisted of 40% DMSO in sterile saline.
Motor deficits were assessed using a grip strength meter (Bioseb, # BIO-GS3). The animals were held so the front left paw could firmly grasp the bar of the strength meter, and then pulled straight backward until its front paw released its grasp. Grip strength was recorded in Newtons (N). This test was repeated 3 times.

[6] = test system: rats following MCAO; test: Spontaneous activity (automated activity monitor) after MCAO; assay type: in vivo, rat; conditions: NAD 2.8 mg/kg s.c. x3; 30 days after MCAO; day and night
Procedure: as §1, §2, §4
Spontaneous Activity was measured during both the day (1 hr) and night (12 hrs) using an automated activity monitor (VersaMax, Accuscan Instruments, Inc). Spontaneous Activity was measured prior to stroke to establish the normal baseline for each individual animal as well as 1 month after the MCAO. The animals were placed in a Plexiglas box and allowed to roam freely. There is a three dimensional infrared array in this box and when a beam is broken, activity is recorded. A total of sixteen parameters were measured including: Vertical movement, Horizontal movement, and Stereotypic activity were selected for analysis: Horizontal activity (HA), Total distance travelled (TD), Number of movements (MVN), Movement time (MVT), Vertical activity (VA), Number of vertical movements (VMN), vertical time (VT), Stereotype counts (SC), Number of Stereotypy (SN), Stereotypy time (ST), Clockwise rotation (CR), counterclockwise rotation (CCR), Margin distance (MD), Marginal time (MT), Center distance (CD), and Center time (CT). The data are presented as mean+SEM of percent of baseline behavior.

[7] = test system: rats following MCAO; test: Step test after MCAO; assay type: in vivo, rat; conditions: NAD 2.8 mg/kg s.c. x3; 30 days post-stroke; p<0.05
Procedure: as §4
(§5) Rats were held tightly with one forelimb placed on a hard flat table top and then pulled for a length of 1 meter in the direction of the placed forelimb at constant velocity. The test was repeated with the opposite forelimb. This was repeated three times for each forelimb and the percent of contralateral forelimb paw was obtained. The bias was standardized as the absolute number of steps with the contralateral paw minus 100.

[8] = test system: rats following MCAO; test: Battery of behavioral tests after MCAO (corner, grip, rotorod, step, cylinder); assay type: in vivo, rat; conditions: NAD 2.8 mg/kg s.c. x3; 30 days after MCAO
Procedure: After surgery, animals were tested was performed once before surgery and 30 days post-surgery for motor coordination and behavior. All behavioral data are reported as mean+sem.
Rotorod test, which measures motor coordination, was conducted using Omni-rotor Rotorod (Omnitech, Inc). Animals were trained on the accelerating rotorod apparatus for 3 consecutive days before times were collected. Animals were placed on the revolving rod and instrument was set to accelerate to a maximum speed of 40 rpm over 180 seconds. Latency to fall (in seconds) was recorded. This test was performed in triplicate once per day for 3 days.
as §5
The animals were placed in a transparent cylinder about 20 cm in diameter and 30 cm in height with an open top. The number times each paw was placed on the sides of the cylinder was counted a5 minute period. The test was videotaped and a mirror was placed behind the cylinder allowing the experimenter to see the placement of paws when the animal was facing away from the camera.
A 30 degree angle was formed using the edges of two plexiglass boards. The animals were placed halfway into the corner facing the corner and the total number of left and right turns was recorded. A total of 10 trials were conducted and videotaped. A non-lesioned animal turned randomly toward the left or right, while a lesioned animal preferentially turned toward the non-impaired (left) side. Results were reported as the percentage of ipsilateral (injury site, right side) versus contralateral turns.
Motor deficits were assessed using a grip strength meter (Bioseb, # BIO-GS3). […] Grip strength was recorded in Newtons (N). […]

[9] = test system: stroke; conditions: Ruscher, Shamloo et al. 2011; cited from earlier work
[10] = migration evoked by 100 μM ATP, two-component Langmuir-Hill fit

SMILES: Cl.N=C(Nc1ccc(Br)cc1)Nc1ccc(Br)cc1 [Bromo-DTG, N,N′-di-p-Bromophenylguanidine hydrochloride]
- Infarct volume vs vehicle [1]: did not show significant effects over vehicle

SMILES: Cl.N=C(Nc1cccc(Cl)c1)Nc1cccc(Cl)c1 [Chloro-DTG, N,N′-di-m-Chlorophenylguanidine hydrochloride]
- Infarct volume vs vehicle [1]: did not show significant effects over vehicle

SMILES: Cc1ccccc1NC(=N)Nc1ccccc1C [DTG, 1,3-di-o-tolylguanidine, reference compound]
- Infarct size 96 hrs post-MCAO [2]: decreased infarct volume; also recorded: decreased infarct size
- Long-term functional recovery [2]: failed to improve long-term functional recovery
- Microglial cell death [3]: significantly reduced microglial cell death
- Emax, high affinity component [4, 10]: 0.38
- Emax, low affinity component [4, 10]: 0.62
- Hill coefficient, high affinity component [4, 10]: 0.59
- Hill coefficient, low affinity component [4, 10]: 1.7
- IC50 ([4]; migration evoked by 100 μM ATP, two-component Langmuir-Hill fit, read-out: IC50, high affinity component): 0.76 µM
- IC50 ([4]; read-out: IC50, low affinity component): 80 µM

SMILES: Cl.N=C(Nc1ccc([N+](=O)[O-])cc1)Nc1ccc([N+](=O)[O-])cc1 [NAD, N,N′-di-p-Nitrophenylguanidine hydrochloride]
- Infarct volume vs vehicle [1]: not significant
- Average grip strength vs non-treated rats [5]: significantly higher
- Activity vs MCAO-only animals [6]: less activity than MCAO-only animals
- Step test, steps with impaired paw compared to unimpaired paw [7]: 100.3 ± 5.6%
- Overall behavioral data vs vehicle, all tests except Grip Strength and Step test [8]: no significant difference

SMILES: COc1ccc(CCN2CCN(CCCc3ccccc3)CC2)cc1OC [SA4503]
- Infarct size [9]: without decreasing infarct size
- Sensorimotor function [9]: improved sensorimotor function

From patent publication US9636311B2, “N,N′-di-1 naphthylguanidine HCl (NAGH) and N,N′-di-p-nitrophenylguanidine HCl (NAD) treatment for stroke at delayed timepoints” (University of South Florida, priority 2012, dated 2017)
